Key:
BMDMs = type: cell-based, mouse
Protocol: Mouse bone marrow-derived macrophages (BMDMs) were isolated from the hind leg femur bone marrow of C57BL/6J mice and were cultured or activated with macrophage colony-stimulating factor (M-CSF, 50 ng ml-1) according to standardized procedures. The purity of the induced cells was assessed by flow cytometry for CD45+CD11b+ cells.
One day before treatment, cells were plated at 400,000 cells/well in a 12 well plate. […] […] Plates were flipped upside down and left to incubate for 10 min at 37° C. Cells were diluted to 2.5 mL with PFB-saturated RPMI, placed on top of a water bath set to 37° C., then sonoporated at 1 MHz, with 1 W/cm^2 power density, 20% duty cycle (DC) for 60 seconds (SONITRON® GTS, 15 mm diameter). Fluorescence microscopy images were taken at different time points (0, 3, 6, 12, 24, and 48 h).

STING pathway in BMDMs = assay: STING signaling after treatment (qRT-PCR, ELISA, western blot, immunostaining); type: cell-based, mouse
Protocol: Mouse BMDMs and human THP-1 cells were cultured as described above.

[1] = test system: EO771 orthotopic breast tumors; assay: Tumor growth and survival; type: in vivo, mouse; details: wild type mice, three intratumoral treatments every other day, 100 μg cGAMP
Protocol: Orthotopic mammary fat pad tumors were established as in Example 9. […] The mice were injected intratumorally with 20 μL of solution infused at 1 μL/second using a syringe pump. […] The mice were treated every other day for a total of three treatments (days 13, 15, and 17). US, where part of the treatment group, was applied by using acoustic coupling gel and a 1-MHz plane wave transducer operating at 4 W/cm^2 for 60 seconds and a 50% duty cycle given to opposite sides of the tumor for a total treatment time of 120 seconds. At 18 days post tumor inoculation treated mice were sacrificed.
Tumor sizes were measured every two days using digital calipers, and tumor volume was calculated according to an ellipsoid formula as 0.5×length×width^2. Mice were sacrificed if any tumor ulceration was observed or if tumors reached 2000 mm^3 in volume. The final tumor volume comparison between the MUSIC and control groups was done when the first mice from a control group was sacrificed. […] Statistical analysis was done using an unpaired t-test for tumor sizes and Log-rank test for survival curves.

2′-O-(6-[DY547]-aminohexylcarbamoyl)-cyclic diguanosine monophosphate [diGMP only]
uptake of diGMP (fluorescence microscopy) (BMDMs): weak uptake

Nc1nc2c(ncn2[C@@H]2O[C@@H]3COP(=O)(O)O[C@H]4[C@@H](O)[C@H](n5cnc6c(N)ncnc65)O[C@@H]4COP(=O)(O)O[C@@H]2[C@@H]3O)c(=O)[nH]1 [cGAMP, cyclic guanosine monophosphate-adenosine monophosphate]
STING or IRF-3 phosphorylation (western blot) (STING pathway in BMDMs): no STING or IRF-3 phosphorylation
mice with complete tumor remission / complete response [1]: 2 out of 10
